Experiments:
Test in all cases: relative viability (nuclei count vs DMSO), 5 days (fraction); higher = more cells survive
Decitabine + Navitoclax = compound: Nc1ncn([C@H]2C[C@H](O)[C@@H](CO)O2)c(=O)n1 [Decitabine] + CC1(C)CCC(c2ccc(Cl)cc2)=C(CN2CCN(c3ccc(C(=O)NS(=O)(=O)c4ccc(N[C@H](CCN5CCOCC5)CSc5ccccc5)c(S(=O)(=O)C(F)(F)F)c4)cc3)CC2)C1 [Navitoclax] (partner 0.5 µM)
Method in brief: (§1)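 Nuclei were stained with Hoechst during a one-step fixation (final 0.05% Triton X-100, 1% formaldehyde, 1 ug/ml Hoechst) carried out 5 days after dosing, then counted on 4× images. The cells, lung cancer lines in 1536-well plates, had been dosed by pin tool the day after seeding with one drug alone or a fixed anchor-drug dose plus five library-drug doses (not always all listed) in √10 steps. Relative viability is the nuclei count in treated wells divided by that in vehicle wells, and each value is the median of duplicate plates.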

Decitabine + Olaparib = compound: Nc1ncn([C@H]2C[C@H](O)[C@@H](CO)O2)c(=O)n1 [Decitabine] + O=C(c1cc(Cc2n[nH]c(=O)c3ccccc23)ccc1F)N1CCN(C(=O)C2CC2)CC1 [Olaparib] (partner 8 µM)
Method in brief: as §1

Decitabine + Phenformin = compound: Nc1ncn([C@H]2C[C@H](O)[C@@H](CO)O2)c(=O)n1 [Decitabine] + N=C(N)NC(=N)NCCc1ccccc1 [Phenformin] (partner 250 µM)
Method in brief: as §1

Decitabine + Bortezomib = compound: Nc1ncn([C@H]2C[C@H](O)[C@@H](CO)O2)c(=O)n1 [Decitabine] + CC(C)C[C@H](NC(=O)[C@H](Cc1ccccc1)NC(=O)c1cnccn1)B(O)O [Bortezomib] (partner 0.002 µM)
Method in brief: as §1

Cell Line: UMC-11
- relative viability (Decitabine + Navitoclax; first compound 0.04 µM): 0.316
- relative viability (Decitabine + Navitoclax; first compound 0.1265 µM): 0.29
- relative viability (Decitabine + Navitoclax; first compound 0.4 µM): 0.215
- relative viability (Decitabine + Navitoclax; first compound 1.265 µM): 0.162
- relative viability (Decitabine + Navitoclax; first compound 4 µM): 0.145
- relative viability (Decitabine + Olaparib; first compound 0.04 µM): 0.312
- relative viability (Decitabine + Olaparib; first compound 0.1265 µM): 0.301
- relative viability (Decitabine + Olaparib; first compound 0.4 µM): 0.273
- relative viability (Decitabine + Olaparib; first compound 1.265 µM): 0.218
- relative viability (Decitabine + Olaparib; first compound 4 µM): 0.2
- relative viability (Decitabine + Phenformin; first compound 0.04 µM): 0.31
- relative viability (Decitabine + Phenformin; first compound 0.1265 µM): 0.32
- relative viability (Decitabine + Phenformin; first compound 0.4 µM): 0.308
- relative viability (Decitabine + Phenformin; first compound 1.265 µM): 0.266
- relative viability (Decitabine + Phenformin; first compound 4 µM): 0.274
- relative viability (Decitabine + Bortezomib; first compound 0.04 µM): 0.681
- relative viability (Decitabine + Bortezomib; first compound 0.1265 µM): 0.58
- relative viability (Decitabine + Bortezomib; first compound 0.4 µM): 0.31
- relative viability (Decitabine + Bortezomib; first compound 1.265 µM): 0.275
- relative viability (Decitabine + Bortezomib; first compound 4 µM): 0.252

— the supplement of paper PMC10307832
